This note sets out measurements from patent US20250188092A1, “RIFAMYCIN ANALOGS” (THE REGENTS OF THE UNIVERSITY OF MICHIGAN, priority 2021, published 2025).

One data set has as its target T1, E. coli WT RNAP (Escherichia coli, UniProt P0A8V2).
T1 construct: made in house
The data set is described as follows: biochemical.

Data set [1] concerns the target T2, E. coli D516V (RIF^R) RNAP (Escherichia coli, UniProt P0A8V2, D516V).
T2 construct: made in house
As to the kind of experiment: biochemical.

The target in data set [2] is T3, E. coli S531L (RIF^R) RNAP (Escherichia coli, UniProt P0A8V2, S531L).
T3 construct: made in house
As to the kind of experiment: biochemical.

Another data set deals with MTB H37Rv ATCC 27294. As to the kind of experiment: MIC, microplate Alamar Blue assay (MABA). The class given is cell-based, Mycobacterium tuberculosis. A general note: Alamar Blue is a resazurin reagent that responds to reducing activity.
The next data set relates to VERO cells (ATCC CRL-81). The data set is described as follows: Vero cell toxicity. The data set is classed as cell-based. Particulars: Chlorocebus sabaeus, Vero; 72 hours exposure. The method, then: Cytotoxicity for a mammalian cell line was determined by exposing VERO cells (ATCC CRL-81) to serial dilutions of test compounds for 72 hours, followed by addition of resazurin and measurement of fluorescence after 4 hours incubation (Choules, et al., Antimnicrob. Agents Chemother. 2019, 63, e02204-02218).

For the next data set, the system named is DPX2 cells. The conditions noted are these: for DPX2 Viability @ 6.25 μM: 24 h; for DPX2 Viability @ 25 μM: human.
Where [3] appears, read: Mycobacterium tuberculosis, MTB H37Rv ATCC 27294, microplate Alamar Blue assay, lowest concentration giving ≥90% reduction in fluorescence.

As for `CO[C@H]1/C=C/O[C@@]2(C)Oc3c(C)c(O)c4c(=O)c(c5oc6cccc(OCc7cccc(CN8CCN(C(=O)CN9CCOCC9)CC8)c7)c6nc-5c4c3C2=O)NC(=O)/C(C)=C\C=C\[C@H](C)[C@H](O)[C@@H](C)[C@@H](O)[C@@H](C)[C@H](OC(C)=O)[C@@H]1C` [Compound 11f, (7S,9E,11S,12R,13S,14R,15R,16R,17S,1S,19E,21Z)-2,15,17-Trihydroxy-11-methoxy-3,7,12,14,16,18,22-heptamethyl-32-{[3-({4-[2-(morpholin-4-yl)acetyl]piperazin-1-yl}methyl)phenyl]methoxy}-6,23,37-trioxo-8,27,38-trioxa-24,34-diazahexacyclo[23.11.1.1^4,7.0^5,36.0^26,35.0^28,33]octatriaconta-1(36)2,4,9,19,21,25,28,30,32,34-undecaen-13-yl acetate], the IC50 (usually the concentration needed to halve the response being measured) was 0.01 µM against E. coli WT RNAP, 39 µM in data set [1], more than 500 µM in data set [2] and 6.2 µM with VERO cells (ATCC CRL-81). For the same compound, the “MIC90 MABA Rel to RMP” value against MTB H37Rv ATCC 27294 was 0.65. In the data set with MTB H37Rv ATCC 27294 (setting [3]), the MIC90 (commonly an inhibitory concentration at the 90% level, which refers to growth in some studies and to a panel of isolates in others) was determined as 0.024 µM. Moreover, the “DPX2 Viability @ 6.25 μM” value with DPX2 cells was 103%. The “DPX2 Viability” value with DPX2 cells (21 μM) was 57%.

`CO[C@H]1/C=C/O[C@@]2(C)Oc3c(C)c(O)c4c(=O)c(c5oc6cccc(OCCCCN7CCN(C(=O)CN8CCOCC8)CC7)c6nc-5c4c3C2=O)NC(=O)/C(C)=C\C=C\[C@H](C)[C@H](O)[C@@H](C)[C@@H](O)[C@@H](C)[C@H](OC(C)=O)[C@@H]1C` [Compound 5e, (7S,9E,11S,12R,13S,14R,15R,16R,17S,18S,19E,21Z)-2,15,17-Trihydroxy-11-methoxy-3,7,12,14,16,18,22-heptamethyl-32-(4-{4-[2-(morpholin-4-yl)acetyl]piperazin-1-yl}butoxy)-6,23,37-trioxo-8,27,38-trioxa-24,34-diazahexacyclo[23.11.1.1^4,7.0^5,36.0^26,35.0^28,33]octatriaconta-1(36)2,4,9,19,21,25,28(33)29,31,34-undecaen-13-yl acetate]: the IC50 at E. coli WT RNAP is 0.007 µM; in data set [1] it was 23 µM; in data set [2], more than 1000 µM; in the data set on VERO cells (ATCC CRL-81) it was more than 8 µM. Besides, the “MIC90 MABA Rel to RMP” value against MTB H37Rv ATCC 27294 was 1.4. The MIC in the data set with MTB H37Rv ATCC 27294 (Mycobacterium tuberculosis, MTB H37Rv ATCC 27294, microplate Alamar Blue assay, lowest concentration giving ≥90% reduction in fluorescence, read-out: MIC90 MABA) stood at 0.082 µM. The “DPX2 Viability @ 6.25 μM” value with DPX2 cells is listed as 106%. Further, the “DPX2 Viability @ 25 μM” value with DPX2 cells is on record as 83%.

With `CO[C@H]1/C=C/O[C@@]2(C)Oc3c(C)c(O)c4c(=O)c(c5oc6cccc(OCc7cccc(CN8CCN(C(C)=O)CC8)c7)c6nc-5c4c3C2=O)NC(=O)/C(C)=C\C=C\[C@H](C)[C@H](O)[C@@H](C)[C@@H](O)[C@@H](C)[C@H](OC(C)=O)[C@@H]1C` [Compound 11c, (7S,9E,11S,12R,13S,14R,15R,16R,17S,18S,19E,21Z)-32-({3-[(4-Acetylpiperazin-1-yl)methyl]phenyl}methoxy)-2,15,17-trihydroxy-11-methoxy-3,7,12,14,16,18,22-heptamethyl-6,23,37-trioxo-8,27,38-trioxa-24,34-diazahexacyclo-[23.11.1.1^4,7.0^5,36.0^26,35.0^28,33]octatriaconta-1(36)2,4,9,19,21,25,28,30,32,34-undecaen-13-yl acetate], the IC50 on E. coli WT RNAP was 0.019 µM; in data set [1], 8.8 µM; in data set [2], 330 µM; in the data set with VERO cells (ATCC CRL-81), more than 8 µM. For the same compound, in the data set on MTB H37Rv ATCC 27294, the “MIC90 MABA Rel to RMP” value is listed as 1.4. Also, the MIC90 in the data set with MTB H37Rv ATCC 27294 (setting [3]) was 0.058 µM. In the data set with DPX2 cells, the “DPX2 Viability @ 6.25 μM” value came out at 103%. Also, the “DPX2 Viability @ 25 μM” value in the data set on DPX2 cells stood at 70%.

In the case of `CO[C@H]1/C=C/O[C@@]2(C)Oc3c(C)c(O)c4c(=O)c(c5oc6cccc(OCc7ccc(CN8CCN(C(=O)CN9CCOCC9)CC8)cc7)c6nc-5c4c3C2=O)NC(=O)/C(C)=C\C=C\[C@H](C)[C@H](O)[C@@H](C)[C@@H](O)[C@@H](C)[C@H](OC(C)=O)[C@@H]1C` [Compound 16c, (7S,9E,11S,12R,13S,14R,15R,16R,17S,18S,19E,21Z)-2,15,17-Trihydroxy-11-methoxy-3,7,12,14,16,18,22-heptamethyl-32-{[4-({4-[2-(morpholin-4-yl)acetyl]piperazin-1-yl}methyl)phenyl]methoxy}-6,23,37-trioxo-8,27,38-trioxa-24,34-diazahexacyclo[23.11.1.1^4,7.0^5,36.0^26,35.0^28,33]octatriaconta-1(36)2,4,9,19,21,25,28,30,32,34-undecaen-13-yl acetate], the 50% inhibitory concentration (IC50) against E. coli WT RNAP is 0.005 µM; in data set [1] it was 10 µM; in data set [2], 92 µM; in the data set on VERO cells (ATCC CRL-81), more than 8 µM. Further, the “MIC90 MABA Rel to RMP” value with MTB H37Rv ATCC 27294 amounted to 0.51. This compound came in with an MIC90 against MTB H37Rv ATCC 27294 (setting [3]) of 0.019 µM. In the data set with DPX2 cells, the “DPX2 Viability @ 6.25 μM” value turned out to be 96%. Moreover, in the data set on DPX2 cells, the “DPX2 Viability @ 25 μM” value came out at 55%.

With `CO[C@H]1/C=C/O[C@@]2(C)Oc3c(C)c(O)c4c(=O)c(c5oc6cc(C=Nc7ccc(N8CCOCC8)cc7)cc(N7CCN(C)CC7)c6nc-5c4c3C2=O)NC(=O)/C(C)=C\C=C\[C@H](C)[C@H](O)[C@@H](C)[C@@H](O)[C@@H](C)[C@H](OC(C)=O)[C@@H]1C` [Compound 32, (7S,9E,11S,12R,13S,14R,15R,16R,17S,18S,19E,21Z)-2,15,17-trihydroxy-11-methoxy-3,7,12,14,16,18,22-heptamethyl-32-(4-methylpiperazin-1-yl)-30-{N-[4-(morpholin-4-yl)phenyl]carboximidoyl}-6,23,37-trioxo-8,27,38-trioxa-24,34-diazahexacyclo[23.11.1.1^4,7.0^5,36.0^26,35.0^28,33]octatriaconta-1,3,5(36)9,19,21,25,28,30,32,34-undecaen-13-yl acetate], the IC50 was 0.01 µM against E. coli WT RNAP, 30 µM in data set [1], 330 µM in data set [2] and more than 8 µM in the data set with VERO cells (ATCC CRL-81). Also, the “MIC90 MABA Rel to RMP” value against MTB H37Rv ATCC 27294 was found to be 1.74. In the data set on MTB H37Rv ATCC 27294 (setting [3]), this compound displayed an MIC90 of 0.047 µM. In addition, the “DPX2 Viability @ 6.25 μM” value in the data set on DPX2 cells is 116%. Further, the “DPX2 Viability @ 25 μM” value with DPX2 cells is given as 100%.

For the compound `CCC(=O)N1CCN(Cc2cccc(COc3cccc4oc5c6c(=O)c7c(O)c(C)c8c(c7c-5nc34)C(=O)[C@@](C)(O/C=C/[C@H](OC)[C@@H](C)[C@@H](OC(C)=O)[C@H](C)[C@H](O)[C@H](C)[C@@H](O)[C@@H](C)/C=C/C=C(/C)C(=O)N6)O8)c2)CC1` [Compound 11d, (7S,9E,11S,12R,13S,14R,15R,16R,17S,1S,19E,21Z)-2,15,17-Trihydroxy-11-methoxy-3,7,12,14,16,18,22-heptamethyl-6,23,37-trioxo-32-{(3-[(4-propanoylpiperazin-1-yl)methyl]phenyl}methoxy)-8,27,38-trioxa-24,34-diazahexacyclo[23.11.1.1^4,7.0^5,36.0^26,35.0^28,33]octatriaconta-1(36)2,4,9,19,21,25,28,30,32,34-undecaen-13-yl acetate], the 50% inhibitory concentration (IC50) was less than 0.005 µM at E. coli WT RNAP, 0.9 µM in data set [1], 94 µM in data set [2] and 19.1 µM in the data set on VERO cells (ATCC CRL-81). For the same compound, in the data set with MTB H37Rv ATCC 27294, the “MIC90 MABA Rel to RMP” value came out at 0.43. Moreover, in the data set with MTB H37Rv ATCC 27294 (setting [3]), the MIC90 is 0.016 µM. In addition, the “DPX2 Viability @ 6.25 μM” value in the data set on DPX2 cells turned out to be 77%. The “DPX2 Viability @ 25 μM” value in the data set on DPX2 cells is reported as 33%.

For the compound `CO[C@H]1/C=C/O[C@@]2(C)Oc3c(C)c(O)c4c(=O)c(c5oc6cc(C)cc(N7CCN(CC(C)C)CC7)c6nc-5c4c3C2=O)NC(=O)/C(C)=C\C=C\[C@H](C)[C@H](O)[C@@H](C)[C@@H](O)[C@@H](C)[C@H](OC(C)=O)[C@@H]1C` [Compound 30c, (7S,9E,11S,12R,13S,14R,15R,16R,17S,18S,19E,21Z)-2,15,17-Trihydroxy-11-methoxy-3,7,12,14,16,18,22,30-octamethyl-32-[4-(2-methylpropyl)piperazin-1-yl]-6,23,37-trioxo-8,27,38-trioxa-24,34-diazahexacyclo[23.11.1.1^4,7.0^5,36.0^26,35.0^28,33]octatriaconta-1(36)2,4,9,19,21,25,28,30,32,34-undecaen-13-yl acetate], the IC50 on E. coli WT RNAP is 0.006 µM; in data set [1], 10 µM; in data set [2], 130 µM; with VERO cells (ATCC CRL-81), more than 8 µM. In the data set with MTB H37Rv ATCC 27294, the “MIC90 MABA Rel to RMP” value is on record as less than 0.6. In the data set on MTB H37Rv ATCC 27294 (setting [3]), this compound had an MIC90 of less than 0.016 µM. The “DPX2 Viability @ 6.25 μM” value in the data set on DPX2 cells was 93%. In addition, in the data set with DPX2 cells, the “DPX2 Viability @ 25 μM” value came out at 49%.

As for `CO[C@H]1/C=C/O[C@@]2(C)Oc3c(C)c(O)c4c(=O)c(c5oc6cccc(OCc7cccc(CN8CCN(C(=O)Cc9ccccc9)CC8)c7)c6nc-5c4c3C2=O)NC(=O)/C(C)=C\C=C\[C@H](C)[C@H](O)[C@@H](C)[C@@H](O)[C@@H](C)[C@H](OC(C)=O)[C@@H]1C` [Compound 11g, (7S,9E,11S,12R,13S,14R,15R,16R,17S,18S,19E,21Z)-2,15,17-Trihydroxy-11-methoxy-3,7,12,14,16,18,22-heptamethyl-6,23,37-trioxo-32-[(3-{[4-(2-phenylacetyl)-piperazin-1-yl]methyl}phenyl)methoxy]-8,27,38-trioxa-24,34-diazahexacyclo[23.11.1.1^4,7.0^5,36.0^26,35.0^28,33]octatriaconta-1(36)2,4,9,19,21,25,28,30,32,34-undecaen-13-yl acetate], the IC50 was less than 0.005 µM against E. coli WT RNAP, 0.58 µM in data set [1], 28 µM in data set [2] and more than 32 µM in the data set with VERO cells (ATCC CRL-81). Further, in the data set with MTB H37Rv ATCC 27294, the “MIC90 MABA Rel to RMP” value amounted to 0.30. The same compound yielded an MIC90 against MTB H37Rv ATCC 27294 (setting [3]) of 0.011 µM. Besides, the “DPX2 Viability @ 6.25 μM” value in the data set with DPX2 cells worked out at 88%. Moreover, in the data set with DPX2 cells, the “DPX2 Viability @ 25 μM” value amounted to 70%.
